Test results: patent US10759826B2, “15β-substituted estrone derivatives as selective inhibitors of 17β-hydroxysteroid-dehydrogenases, method of preparation and use thereof” (USTAV ORGANICKE CHEMIE A BIOCHEMIE AV CR, V.V.I., priority 2016, dated 2020)

Tests used:
androgen receptor (AR) = target: T1, androgen receptor (AR) (Homo sapiens, UniProt P10275); assay: AR luciferase reporter assay in U2OS cells; format: cell-based; settings: for AR antagonism in words: testing range 10 μmol·l^−1 to 1 nmol·l^−1
T1 construct: expressed in transfected cells
T1 sequence (P10275 1-920): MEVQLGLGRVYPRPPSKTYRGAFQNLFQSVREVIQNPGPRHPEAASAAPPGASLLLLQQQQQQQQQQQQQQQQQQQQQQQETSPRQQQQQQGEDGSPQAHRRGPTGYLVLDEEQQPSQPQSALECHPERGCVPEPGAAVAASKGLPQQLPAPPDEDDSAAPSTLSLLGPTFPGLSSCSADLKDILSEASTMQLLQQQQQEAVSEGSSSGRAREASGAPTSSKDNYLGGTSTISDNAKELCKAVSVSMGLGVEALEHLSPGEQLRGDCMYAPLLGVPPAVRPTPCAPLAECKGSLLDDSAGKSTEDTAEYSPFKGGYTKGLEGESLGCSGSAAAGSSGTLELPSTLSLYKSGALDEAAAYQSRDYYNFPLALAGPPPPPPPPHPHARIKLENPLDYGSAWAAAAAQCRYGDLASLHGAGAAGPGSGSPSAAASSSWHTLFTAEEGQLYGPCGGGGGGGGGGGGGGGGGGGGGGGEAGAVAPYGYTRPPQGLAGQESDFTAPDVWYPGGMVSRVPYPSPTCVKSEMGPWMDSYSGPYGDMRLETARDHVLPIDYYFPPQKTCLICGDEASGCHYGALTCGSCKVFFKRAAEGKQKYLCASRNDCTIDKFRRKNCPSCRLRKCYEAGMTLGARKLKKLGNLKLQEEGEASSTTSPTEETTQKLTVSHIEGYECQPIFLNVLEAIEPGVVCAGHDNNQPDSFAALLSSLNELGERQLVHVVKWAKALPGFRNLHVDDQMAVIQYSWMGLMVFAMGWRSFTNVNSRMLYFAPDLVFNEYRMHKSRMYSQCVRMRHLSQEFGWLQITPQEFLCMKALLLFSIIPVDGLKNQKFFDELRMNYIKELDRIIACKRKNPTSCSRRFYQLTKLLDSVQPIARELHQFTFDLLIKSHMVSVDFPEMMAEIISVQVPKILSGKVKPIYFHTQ

[1] = target: T2, progesterone receptor (PR) (Homo sapiens, UniProt P06401); assay: PR luciferase reporter assay in U2OS cells; format: cell-based; settings: read-out: ANTAGONIST mode PR IC50
T2 construct: expressed in transfected cells

U2OS cells = assay: Cell viability (ATP) of unmodified U2OS cells, parallel to reporter assay; format: cell-based, human; settings: Homo sapiens
Experimental: To separate the antagonist activity of test compounds from the cytotoxic effect on U2OS cells (cell line derived from osteosarcoma), an experiment for determination of cell viability was performed in parallel with the reporter assay. Original, genetically unmodified U2OS cells were grown under the same conditions as the reporter cells. These cells were further treated and incubated with the compounds in a completely identical manner and for the same time as cells in the reporter assay. At the end of the experiment, the amount of ATP was determined using BriteLite luciferase homogeneous assay as a measure of cell viability. The data were then processed together with data from the reporter assays.

MDA-MB-231 = assay: 7 day proliferation assay, MDA-MB-231; format: cell-based; settings: 1 μmol·l^−1, 7 days
Experimental: (§1) In this study, T47D cells were propagated in RPMI 1640 medium supplemented with 10% fetal bovine serum, 2 mmol^·l^−1 glutaMAX (Thermo Fisher Scientific, MA, USA), and penicillin/streptomycin (Thermo Fisher Scientific, Waltham, USA) and incubated in a 5% CO2-humidified atmosphere at 37° C. to the amount needed for the experiment. Two days prior to testing of compounds, growth medium was changed to medium without phenol red, supplemented with 2 mmol^·l^−1 Glutamax and 4% FBS depleted of lipophilic components (including the endogenous estrogenic substances) (Hyclone, GE Healthcare Life Sciences, USA). Two days after the medium replacement, the cells were harvested, counted and resuspended in a medium. Cells were dispensed with liquid dispenser Multidrop (Thermo Fisher Scientific, Waltham, USA), to the cell culture treated, 12-well plates (Corning Inc., NY, USA) at 100 000 cells/well in 1 mL of total media volume. […] After 7 days of cell cultivation with compounds, cells were harvested and counted. […]
(§2) Compounds 9 and 12 were tested in the proliferation assay with cell lines derived from the triple negative breast cancer (MDA-MB-231), AR-negative prostate cancer (PC3, DU145) and ovarian cancer (SK-OV-3, CaoV-3). […] At the end of the treatment, cells were harvested and counted. […]

DU145 = assay: 7 day proliferation assay, DU145; format: cell-based; settings: 1 μmol·l^−1, 7 days
Experimental: as §1, §2

SK-OV-3 = assay: 7 day proliferation assay, SK-OV-3; format: cell-based; settings: 1 μmol·l^−1, 7 days
Experimental: as §1, §2

CaOV-3 = assay: 7 day proliferation assay, CaOV-3; format: cell-based; settings: 1 μmol·l^−1, 7 days
Experimental: as §1, §2

T2 sequence (P06401 whole entry): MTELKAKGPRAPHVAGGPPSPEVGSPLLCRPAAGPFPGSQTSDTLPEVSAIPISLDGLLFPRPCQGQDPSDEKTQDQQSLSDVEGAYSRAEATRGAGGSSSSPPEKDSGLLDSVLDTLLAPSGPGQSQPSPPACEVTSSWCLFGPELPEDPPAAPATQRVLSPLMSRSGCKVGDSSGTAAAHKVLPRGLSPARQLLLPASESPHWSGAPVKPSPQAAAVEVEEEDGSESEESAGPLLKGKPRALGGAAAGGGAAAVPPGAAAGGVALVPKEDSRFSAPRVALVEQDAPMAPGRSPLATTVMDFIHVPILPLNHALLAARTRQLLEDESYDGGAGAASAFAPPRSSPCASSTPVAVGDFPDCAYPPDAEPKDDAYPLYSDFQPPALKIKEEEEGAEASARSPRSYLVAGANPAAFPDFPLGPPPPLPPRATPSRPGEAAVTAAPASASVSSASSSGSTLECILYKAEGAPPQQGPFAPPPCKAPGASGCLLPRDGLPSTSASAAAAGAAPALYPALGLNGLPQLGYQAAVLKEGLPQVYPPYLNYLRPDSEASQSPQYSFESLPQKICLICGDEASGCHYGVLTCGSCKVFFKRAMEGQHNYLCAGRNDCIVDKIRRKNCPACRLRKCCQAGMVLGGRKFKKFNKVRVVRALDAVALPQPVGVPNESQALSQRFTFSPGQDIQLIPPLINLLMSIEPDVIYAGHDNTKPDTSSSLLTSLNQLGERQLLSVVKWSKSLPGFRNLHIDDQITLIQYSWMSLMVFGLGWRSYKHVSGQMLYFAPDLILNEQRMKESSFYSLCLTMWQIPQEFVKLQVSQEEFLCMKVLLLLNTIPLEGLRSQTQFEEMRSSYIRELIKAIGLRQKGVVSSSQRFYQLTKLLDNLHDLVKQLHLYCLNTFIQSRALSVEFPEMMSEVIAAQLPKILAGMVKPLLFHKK

Row | SMILES | IC50 (androgen receptor (AR); antagonist mode, 1 nmol·l^−1 DHT) | AR antagonism in words (androgen receptor (AR)) | IC50 [1] | IC50 (U2OS cells) | % of survived cells compared to untreated samples, MDA-MB-231 (MDA-MB-231) | % of survived cells compared to untreated samples, DU145 (DU145) | % of survived cells compared to untreated samples, SK-OV-3 (SK-OV-3) | % of survived cells compared to untreated samples, CaOV-3 (CaOV-3)
1 | CCOc1ccc(CC[C@@H]2CC(=O)[C@@]3(C)CC[C@@H]4c5ccc(O)cc5CC[C@H]4[C@H]23)cc1 [Compound 12, 15β-(4-Ethoxyphenethyl)-3-hydroxy-estra-1,3,5(10)-trien-17-one] | 89.1 µM | antagonists of both types of receptors | 13.7 µM | > 100 µM | 98% | 86% | 97% | 88%
2 | COc1ccc(CC[C@@H]2CC(=O)[C@@]3(C)CC[C@@H]4c5ccc(O)cc5CC[C@H]4[C@H]23)cc1 [Compound 9, 3-Hydroxy-15β-(4-methoxyphenethyl)-estra-1,3,5 (10)-trien-17-one] | – | AR antagonist | 13.6 µM | > 100 µM | 106% | 98% | 113% | 94%
